Experimental findings from ChEMBL document CHEMBL5375995, “Discovery and Mechanistic Study of Novel Mycobacterium tuberculosis ClpP1P2 Inhibitors” (J Med Chem, 2023) are described below.

pEC50, pIC50: −log10 of the molar value. Converted amounts (≈) assume the structure as drawn. Where only a bound is given, the exact number is not on record here.

In one experiment the target is ClpP1P2 (Mycobacterium tuberculosis (strain ATCC 25618 / H37Rv), UniProt P9WPC3+P9WPC5). The experiment in a line: Binding affinity to N-terminal His6-SUMO-tagged Mtb ClpP1 (7 to 200 residues)/ClpP2 (13 to 214 residues) complex expressed in Escherichia coli BL21(DE3) assessed as increase in thermal stability measured at 25 to 110 degreeC in presence of Bz-LL by DSF assay.
ClpP1P2, sequence (P9WPC5 whole entry, the tested form may be a part): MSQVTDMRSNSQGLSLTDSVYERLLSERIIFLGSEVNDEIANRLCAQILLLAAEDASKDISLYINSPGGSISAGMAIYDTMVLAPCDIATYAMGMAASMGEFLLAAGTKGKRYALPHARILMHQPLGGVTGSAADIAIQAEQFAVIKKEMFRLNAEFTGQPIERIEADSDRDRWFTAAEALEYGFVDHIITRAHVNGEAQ
ClpP1P2, sequence (P9WPC3 whole entry, the tested form may be a part): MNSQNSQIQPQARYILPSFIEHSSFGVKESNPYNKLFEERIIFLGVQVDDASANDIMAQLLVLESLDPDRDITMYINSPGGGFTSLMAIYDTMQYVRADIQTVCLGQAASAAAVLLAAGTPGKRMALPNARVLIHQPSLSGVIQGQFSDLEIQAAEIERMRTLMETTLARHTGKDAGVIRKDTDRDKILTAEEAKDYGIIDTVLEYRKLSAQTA

A short description of experiment [1]: Inhibition of full-length Escherichia coli ClpP complex/Escherichia coli ClpX delta N mutant (62 to 425 residues) expressed in Escherichia coli BL21(DE3) using FITC-casein as substrate measured for 1 hr in presence of Bz-LL/ATP by fluorescence based assay.
Experiment [2] has as its system Mycobacterium tuberculosis. The experiment in a line: Antibacterial activity against Mycobacterium tuberculosis H37Ra assessed as bacterial growth inhibition incubated for 24 hrs by broth microdilution method. Type of experiment: functional.
The test system of another experiment is Pseudomonas aeruginosa. The experiment in a line: Antibacterial activity against Pseudomonas aeruginosa assessed as bacterial growth inhibition incubated for 24 hrs by broth microdilution method. Type of experiment: functional.
Experiment [3] is described as follows: Selectivity index, ratio of IC50 for full-length Staphylococcus aureus ClpP complex expressed in Escherichia coli BL21(DE3) using Suc-LY-AMC as substrate to IC50 for N-terminal His6-SUMO-tagged Mtb ClpP1 (7 to 200 residues)/ClpP2 (13 to 214 residues) complex expressed in Escherichia coli BL21(DE3).
Experiment [4] in a line: Inhibition of N-terminal His6-SUMO-tagged Mycobacterium smegmatis ClpP1 (3 to 200 residues)/P2 (17 to 218 residues) expressed in Escherichia coli BL21(DE3)/C1 using Z-Gly-Gly-Leu-AM as substrate measured for 60 mins in presence of Bz-LL by fluorescence based assay. Also on record: species or system Mycolicibacterium smegmatis.
Experiment [5] can be described thus: Inhibition of full-length Staphylococcus aureus ClpP complex/Escherichia coli ClpX delta N mutant (62 to 425 residues) expressed in Escherichia coli BL21(DE3) using FITC-casein as substrate measured for 1 hr in presence of Bz-LL/ATP by fluorescence based assay.

In the case of `COc1cc2c(Oc3ccc4[nH]c(C)cc4c3F)ncnc2cc1OCCCN1CCCC1` [CEDIRANIB], the pEC50 at ClpP1P2 was 4.54. Also, the pIC50 in experiment [1] is 3.45; in experiment [4] it was 4.36; in experiment [5] it was 3.63. The values for the MIC (in experiment [2]; with Pseudomonas aeruginosa) were 14.1 µM (≈ 6.35 µg/mL) and over 226 µM, respectively. In addition, in experiment [3], the Ratio IC50 was over 170.
